Measurements taken from paper PMC11834790, “Pyridine indole hybrids as novel potent CYP17A1 inhibitors” (Journal of Enzyme Inhibition and Medicinal Chemistry, 2025).

Tests used:
[1] = biological target: T1, CYP17A1 (Homo sapiens, UniProt P05093); test: CYP17A1 17α-hydroxylase activity assay in NCI-H295R cells ([14C]-progesterone, TLC); assay type: cell-based; settings: 4 h, DMSO = 100, read-out: CYP17A1 Hydroxylase activity, Mean (percentage of activity remaining relative to the control)
T1 construct: immortalised human adrenal cells expressing CYP17A1 and other steroidogenic enzymes; endogenous in cells; host or cells: NCI-H295R (human adrenal cells)
T1 sequence (P05093 1-508): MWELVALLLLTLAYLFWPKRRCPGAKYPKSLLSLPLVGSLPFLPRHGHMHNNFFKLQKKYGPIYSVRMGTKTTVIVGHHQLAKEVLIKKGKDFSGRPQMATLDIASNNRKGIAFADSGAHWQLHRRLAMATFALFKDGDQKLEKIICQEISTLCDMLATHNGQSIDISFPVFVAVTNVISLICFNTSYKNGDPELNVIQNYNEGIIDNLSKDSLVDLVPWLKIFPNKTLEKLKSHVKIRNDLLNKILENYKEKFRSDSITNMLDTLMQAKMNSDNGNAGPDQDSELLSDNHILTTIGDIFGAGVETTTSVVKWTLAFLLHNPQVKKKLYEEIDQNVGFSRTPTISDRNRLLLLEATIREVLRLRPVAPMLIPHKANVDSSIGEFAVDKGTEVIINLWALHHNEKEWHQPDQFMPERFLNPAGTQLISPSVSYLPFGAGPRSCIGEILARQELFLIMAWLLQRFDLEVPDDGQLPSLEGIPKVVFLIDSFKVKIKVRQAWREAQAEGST
Method: (§1) Human adrenal NCI-H295R cells are an established model for assay of CYP17A1 activities. The NCI-H295R cells were seeded in 12-well plates at 500 000 cells per well and incubated overnight. On the following day, 10 µM of test compounds were added to the wells with fresh medium and incubated for 4 h. Abiraterone was used as a reference, and DMSO was included as a control. For assessing CYP17A1 hydroxylase activity, cells were treated with [^14C]-Progesterone at 10 000 cpm/1 µM per well. Trilostane was added prior to the test compounds and substrate to inhibit 3β-hydroxysteroid dehydrogenase activity so that a clean assay of only CYP17A1 activity could be performed[20]^,[27]^,[28]. Radiolabeled steroids were extracted from the media using a mixture of ethyl acetate and isooctane (1:1 v/v) and separated by Thin Layer Chromatography (TLC) on silica gel-coated aluminium plates (Supelco® Analytics, Sigma-Aldrich Chemie GmbH, Taufkirchen, Germany). TLC spots were visualised on a phosphor screen and detected by autoradiography using a Typhoon™ FLA-7000 PhosphorImager (GE Healthcare, Uppsala, Sweden). Radioactivity was quantified with ImageQuant™ TL analysis software (GE Healthcare Europe GmbH, Freiburg, Germany), and enzyme activity was expressed as the percentage of radioactivity incorporated into the product relative to the total radioactivity. For CYP17A1 lyase activity, cells were exposed to 50 000 cpm/1 µM [21-^3H]-17α-hydroxypregnenolone per well under similar conditions. The tritiated water release assay was used to measure the conversion of 17OH-Pregnenolone to DHEA. Steroids in the media were precipitated using a 5% activated charcoal/0.5% dextran solution. Enzyme activity was evaluated based on the water-soluble tritiated by-product formed in equimolar amounts with DHEA, with radioactivity in the aqueous phase quantified by liquid scintillation counting (MicroBeta2® Plate Counter, PerkinElmer Inc., Waltham, MA, USA). Percent inhibition was calculated relative to control samples.

[2] = biological target: T1, CYP17A1; test: CYP17A1 17,20-lyase activity assay in NCI-H295R cells (tritiated water release); assay type: cell-based; settings: 4 h, DMSO = 100, read-out: CYP17A1 Lyase activity, Mean (percentage of activity remaining relative to the control)
Method: as §1

[3] = test system: LNCaP cells; test: Alamar blue (resazurin) cell viability, LNCaP; assay type: cell-based, human; settings: 10 µM, 48 h
Method: LNCaP and RWPE-1 cells were plated in 96-well plates at 10 000 cells per well and incubated overnight at 37 °C with 5% CO2. VCaP cells were plated at 12 000 cells per well under the same conditions. After 24 h, the medium was replaced with fresh medium containing the compounds or abiraterone at a final concentration of 10 µM. Cells were incubated for an additional 24 and 48 h. Cell viability was measured using the Alamar Blue assay. Post-incubation, 0.05 mg/mL Alamar Blue solution in phosphate-buffered saline (PBS) was added to each well. The plates were incubated in the dark at 37 °C for 4 h, and fluorescence was measured at an excitation wavelength of 550 nm and an emission wavelength of 590 nm. Cell viability was calculated relative to control sample treated with DMSO. All experiments were conducted in triplicate.

Row | SMILES | remaining activity at 10 µM [1] | remaining activity at 10 µM [2] | Effect on LNCaP cell viability (in words) [3]
1 | N#Cc1c(-c2ccccc2)cc(-c2ccccc2)nc1N [Compound 2, 2-Amino-4,6-diphenylnicotinonitrile] | 67% | 93.7% | 
2 | N#Cc1c(-c2cccnc2)cc(-c2ccccc2)nc1N [Compound 4, 2′-Amino-6′-phenyl-[3,4′-bipyridine]-3′-carbonitrile] | 71% | 68.5% | 
3 | N#Cc1c(-c2ccncc2)cc(-c2ccncc2)c(C#N)c1N [Compound 8, 2-Amino-4,6-di(pyridin-4-yl)isophthalonitrile] | 103% | 84.8% | 
4 | N#Cc1c(-c2cccnc2)cc(-c2cccnc2)c(C#N)c1N [Compound 7, 2-Amino-4,6-di(pyridin-3-yl)isophthalonitrile] | 96% | 113% | 
5 | N#Cc1c(-c2ccccc2)cc(-c2cccnc2)nc1N [Compound 3, 6-Amino-4-phenyl-[2,3′-bipyridine]-5-carbonitrile] | 84% | 94.7% | 

Further lines, with some results ahead:

Row | remaining activity at 10 µM [1] | remaining activity at 10 µM [2] | SMILES | Effect on LNCaP cell viability (in words) [3]
6 | 87% | 57.3% | c1cc(-c2ccc(-c3ccc4[nH]ccc4c3)cc2)ccn1 [Compound 15, 5-(4-(Pyridin-4-yl)phenyl)-1H-indole] | strong effect
7 | 32% | 58.2% | CCCn1nnc2cc(-c3cc(-c4ccncc4)c(C#N)c(N)c3C#N)ccc21 [Compound 10, 2-Amino-4–(1-propyl-1H-benzo[d][1,2,3]triazol-5-yl)-6-(pyridin-4-yl)isophthalonitrile] | 
8 | 63% | 66.8% | N#Cc1c(-c2ccncc2)cc(-c2cccnc2)c(C#N)c1N [Compound 9, 2-Amino-4-(pyridin-3-yl)-6-(pyridin-4-yl)isophthalonitrile] | 
9 | 76% | 93.5% | c1cncc(-c2ccc(-c3ccc4[nH]ccc4c3)cc2)c1 [Compound 13, 5-(4-(Pyridin-3-yl)phenyl)-1H-indole] | 
